Data as given in patent US20090069320A1, “Substituted 4-Amino-Quinazoline Compounds with Metabotropic Glutamate Receptor Regulating Activity and Uses Thereof” (Gruenenthal GmbH, priority 2006, published 2009).

Assays:
mGluR5 receptor (human) = biological target: T1, mGluR5 receptor (human) (Homo sapiens, UniProt P41594); assay: Functional Ca2+ influx assay in CHO-hmGluR5 cells (DHPG 10 μM, FLIPR); assay type: cell-based
T1 construct: host or cells: CHO
Method: V. Functional Ca^2+ Influx Assay
20,000 CHO-hmGluR5 cells/well (Euroscreen, Gosselies, Belgium) are pipetted into 96-well plates (BD Biosciences, Heidelberg, Germany, Ref. 356640, clear bottom, 96-well, poly-D-lysine) and incubated overnight in HBSS buffer (Gibco 14025-050) with the following additions: 10% FCS (GIBCO, 10270-106) and doxycycline (BD Biosciences Clontech 631311 600 ng/ml).
For the functional study the cells were charged with 2 μM of Fluo-4 and 0.01% by vol. pluronic F127 (Molecular Probes Europe BV, Leiden, The Netherlands) in HBSS buffer (Hank's buffered saline solution, Gibco Invitrogen GmbH, Karlsruhe, Germany) with probenicide (Sigma P8761, […]) for 30 min. at 37° C.
The cells are then washed 3 times with washing buffer (HBSS buffer, Gibco No. 14025-050), with probenicide (Sigma P8761, 0.69 mg/ml) and then taken up with the same buffer ad 100 μl. After 15 min. the plates for determining the Ca^2+ measurements in the presence of DHPG ((S)-3,5-dihydroxyphenylglycine, Tocris Biotrend Chemikalien GmbH, Cologne, Germany, final DHPG concentration: 10 μM) and also in the presence or absence of test substances are transferred into a fluorometric imaging plate reader (FLIPR, Molecular Devices, Sunnyvale, Calif.).
The Ca^2+-dependent fluorescence is measured before and after the addition of test substances. The quantification occurs through the measurement of the highest fluorescence intensity over time. After the fluorescence base line has been recorded for 10 sec. 50 μl of test substance solution (different test substance concentrations in HBSS buffer with 1% DMSO and 0.02% Tween 20, Sigma) are added and the fluorescence signal is measured for 6 min. 50 μl of DHPG solution ((S)-3,5-dihydroxyphenylglycine, Tocris Biotrend Chemikalien GmbH, Cologne, Germany, final DHPG concentration: 10 μM) are then added and the influx of Ca^2+ is measured simultaneously for 60 sec. The final DMSO concentration amounts to 0.25% and the final Tween 20 content amounts to 0.005%. The data are analysed with Microsoft Excel and GraphPad Prism. The dose effect curves are calculated with non-linear regression and IC50 values determined. Each data point is determined 3 times and IC50 values are averaged from a minimum of 2 independent measurements. Ki values are calculated according to the following formula:
Ki=IC50/(1+(AGconc./EC50)).
AGconc.=10 μM; EC50 corresponds to the DHPG concentration necessary for the half-maximum influx of Ca^2+.

mGluR5 receptor = biological target: T2, mGluR5 receptor (Sus scrofa, UniProt I3LUI7); assay: [3H]-MPEP mGluR5 receptor binding assay (pig brain homogenate); conditions: 5 nM [3H]-MPEP, read-out: IC50 mGluR5 Receptor (pig) [^3H]-MPEP Bond
T2 construct: 450 μg of protein from brain homogenate with 5 nM ^3[H]-MPEP; from tissue; host or cells: pig brain halves without medulla, cerebellum and pons
T2 sequence (I3LUI7 19-1212): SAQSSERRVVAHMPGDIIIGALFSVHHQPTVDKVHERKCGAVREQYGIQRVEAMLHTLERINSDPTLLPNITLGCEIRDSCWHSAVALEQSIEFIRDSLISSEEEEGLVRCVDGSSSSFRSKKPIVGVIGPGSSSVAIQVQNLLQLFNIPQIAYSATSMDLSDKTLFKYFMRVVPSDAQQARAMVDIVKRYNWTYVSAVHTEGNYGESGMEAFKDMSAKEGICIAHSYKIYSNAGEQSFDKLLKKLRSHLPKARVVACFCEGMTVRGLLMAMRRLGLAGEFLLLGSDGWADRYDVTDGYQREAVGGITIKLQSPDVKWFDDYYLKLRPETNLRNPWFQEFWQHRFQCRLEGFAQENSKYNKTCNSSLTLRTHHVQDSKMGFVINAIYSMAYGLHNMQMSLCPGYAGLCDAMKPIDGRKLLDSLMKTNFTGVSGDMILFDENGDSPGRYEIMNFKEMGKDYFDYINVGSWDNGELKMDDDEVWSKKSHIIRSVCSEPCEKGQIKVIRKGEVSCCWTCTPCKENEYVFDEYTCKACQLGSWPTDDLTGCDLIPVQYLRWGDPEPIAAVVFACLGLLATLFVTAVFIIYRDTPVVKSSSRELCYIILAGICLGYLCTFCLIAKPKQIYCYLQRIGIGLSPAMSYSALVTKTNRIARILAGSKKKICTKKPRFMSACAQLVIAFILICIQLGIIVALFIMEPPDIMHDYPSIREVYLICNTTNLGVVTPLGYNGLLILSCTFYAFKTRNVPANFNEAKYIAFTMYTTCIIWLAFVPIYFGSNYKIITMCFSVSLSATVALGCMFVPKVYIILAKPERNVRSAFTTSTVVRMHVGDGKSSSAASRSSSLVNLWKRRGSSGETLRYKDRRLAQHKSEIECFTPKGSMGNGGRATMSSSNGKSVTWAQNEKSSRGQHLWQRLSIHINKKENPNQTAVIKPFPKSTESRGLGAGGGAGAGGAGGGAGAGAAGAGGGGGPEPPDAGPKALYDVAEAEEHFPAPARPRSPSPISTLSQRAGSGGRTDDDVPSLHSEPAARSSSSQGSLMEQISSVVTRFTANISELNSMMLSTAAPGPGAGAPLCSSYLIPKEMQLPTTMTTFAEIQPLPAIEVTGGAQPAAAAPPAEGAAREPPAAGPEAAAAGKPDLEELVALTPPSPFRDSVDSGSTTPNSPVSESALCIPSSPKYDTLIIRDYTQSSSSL
Outline: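 Radioligand displacement of 5 nM [3H]-MPEP from pig brain homogenate (450 μg protein; medulla, cerebellum and pons removed) in 20 mM Hepes pH 8.0. Compounds were tested at 10 μM, incubated 60 min at room temperature, then filtered and counted by scintillation. Non-specific binding was defined with 10 μM MPEP.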

Formalin test on rats = assay type: in vivo, rat
Method: IIa. Formalin Test on Rats:
The formalin test (Dubuisson, D. and Dennis, S. G., 1977, Pain, 4, 161-174) represents a model for acute as well as chronic pain. By a single formalin injection into the dorsal side of a rear paw a biphase nociceptive reaction is inducted in free-moving test animals that is detected by observation of three clearly distinguishable behavior patterns. The reaction is two-phase: phase I=immediate reaction (duration up to 10 min.; paw shaking, licking), phase 2=late reaction (after a resting phase; likewise paw shaking, licking; duration up to 60 min.). The first phase reflects a direct stimulation of the peripheral nocisensors with high spinal nociceptive input or glutamate release (acute pain phase); the second phase reflects a spinal and peripheral hypersensitisation (chronic pain phase). The chronic pain component (phase 2) was evaluated in the studies presented here.
Formalin is applied subcutaneously in a volume of 50 μl and a concentration of 5% into the dorsal side of the right rear paw of each animal. […] The specific changes in behavior such as lifting and shaking of the paw, shifting weight of the animal as well as biting and licking reactions are observed and recorded in the observation period of 21 to 27 min. after the formalin injection. […]

T1 sequence (P41594 21-1212): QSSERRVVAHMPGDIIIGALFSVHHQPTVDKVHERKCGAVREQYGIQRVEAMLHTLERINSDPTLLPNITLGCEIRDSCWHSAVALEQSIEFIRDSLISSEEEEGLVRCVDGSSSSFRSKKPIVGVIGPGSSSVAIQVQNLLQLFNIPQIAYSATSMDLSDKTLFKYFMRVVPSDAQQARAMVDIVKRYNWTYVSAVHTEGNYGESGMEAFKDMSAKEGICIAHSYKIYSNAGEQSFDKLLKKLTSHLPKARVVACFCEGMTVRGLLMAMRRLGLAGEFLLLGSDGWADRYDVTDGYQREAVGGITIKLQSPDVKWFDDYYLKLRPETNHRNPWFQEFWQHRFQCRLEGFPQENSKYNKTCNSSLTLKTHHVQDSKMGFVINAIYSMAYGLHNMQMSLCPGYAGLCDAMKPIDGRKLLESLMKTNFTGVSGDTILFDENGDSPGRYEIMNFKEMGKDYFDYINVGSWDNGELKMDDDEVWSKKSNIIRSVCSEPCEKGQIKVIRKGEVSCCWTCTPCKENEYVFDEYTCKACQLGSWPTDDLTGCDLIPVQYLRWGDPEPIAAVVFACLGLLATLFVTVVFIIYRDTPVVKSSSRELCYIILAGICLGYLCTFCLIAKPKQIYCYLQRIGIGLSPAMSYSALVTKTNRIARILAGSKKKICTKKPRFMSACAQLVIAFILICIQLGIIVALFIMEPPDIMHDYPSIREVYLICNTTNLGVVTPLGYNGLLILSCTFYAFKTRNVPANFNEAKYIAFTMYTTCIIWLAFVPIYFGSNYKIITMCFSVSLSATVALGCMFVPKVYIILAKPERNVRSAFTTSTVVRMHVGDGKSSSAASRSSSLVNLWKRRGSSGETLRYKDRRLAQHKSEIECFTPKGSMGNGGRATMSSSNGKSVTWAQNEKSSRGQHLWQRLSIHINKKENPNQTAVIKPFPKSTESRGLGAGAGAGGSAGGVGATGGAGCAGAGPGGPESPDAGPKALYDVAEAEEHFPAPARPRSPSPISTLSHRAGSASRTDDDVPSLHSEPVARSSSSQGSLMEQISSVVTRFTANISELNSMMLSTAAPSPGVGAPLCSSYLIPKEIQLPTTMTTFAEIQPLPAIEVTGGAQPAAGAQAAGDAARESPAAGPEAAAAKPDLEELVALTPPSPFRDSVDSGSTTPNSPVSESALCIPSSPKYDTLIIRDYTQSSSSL

| Ki (mGluR5 receptor (human)) | IC50 (mGluR5 receptor) | SMILES | Formalin Test (Formalin test on rats; 2.15 mg/kg i.v.) | Formalin Test (Formalin test on rats; 10 mg/kg i.v.) |
| --- | --- | --- | --- | --- |
| 0.0027 µM | 0.03 µM | CC(C)(C)Nc1ncnc2ccc(-c3ccc(F)c(CN(C(=O)CC#N)C4CC4)c3)cc12 [Example 201, N-[5-(4-tert-butylamino-quinazolin-6-yl)-2-fluoro-benzyl]-2-cyano-N-cyclopropyl-acetamide] | 46% effect at |  |
| 0.0008 µM | 0.03 µM | CC(=O)N(Cc1cc(-c2ccc3ncnc(NC4CC4)c3c2)ccc1F)C1CC1 [Example 260, N-cyclopropyl-N-[5-(4-cyclopropylamino-quinazolin-6-yl)-2-fluoro-benzyl]-acetamide] |  | 80% effect at |
| 0.0084 µM | 0.07 µM | N#CCC(=O)N(Cc1cccc(-c2ccc3ncnc(NC4CC4)c3c2)c1)C1CC1 [Example 211, 2-cyano-N-cyclopropyl-N-[3-(4-cyclopropylamino-quinazolin-6-yl)-benzyl]-acetamide] |  |  |
